In ChEMBL document CHEMBL1159093, “Discovery and optimization of RO-85, a novel drug-like, potent, and selective P2X3 receptor antagonist” (Bioorg Med Chem Lett, 2010):

Columns and labels:
Rattus norvegicus [1] = species: Rattus norvegicus; experiment: Displacement of [3H]batrachotoxinin from sodium channel site2 in rat cerebral cortex at 10 uM after 60 mins by scintillation counting; format: tissue-based
[2] = target: Muscarinic acetylcholine receptor M1 (Homo sapiens) (UniProt P11229); experiment: Displacement of [3H]pirenzepine from human recombinant muscarinic M1 receptor expressed in CHO cells at 10 uM after 60 mins by scintillation counting; format: cell-based
[3] = target: Kappa-type opioid receptor (Rattus norvegicus) (UniProt P34975); experiment: Displacement of [3H]U 69593 from rat recombinant kappa opioid receptor expressed in CHO cells at 10 uM after 60 mins by scintillation counting; format: cell-based
[4] = target: Adenosine receptor A1 (Homo sapiens) (UniProt P30542); experiment: Displacement of [3H]DPCPX from human recombinant A1 receptor expressed in CHO cells at 10 uM after 60 mins by scintillation counting; format: cell-based
[5] = target: Sodium-dependent noradrenaline transporter (Homo sapiens) (UniProt P23975); experiment: Displacement of [3H]nisoxetine from human recombinant NET expressed in CHO cells at 10 uM after 120 mins by scintillation counting; format: cell-based
Rattus norvegicus [6] = species: Rattus norvegicus; experiment: Displacement of [125I]a-dendrotoxin from potassium channel in rat cerebral cortex at 10 uM after 60 mins by scintillation counting; format: tissue-based
[7] = target: Histamine H1 receptor (Homo sapiens) (UniProt P35367); experiment: Displacement of [3H]pyrilamine from human recombinant histamine H1 receptor expressed in HEK293 cells at 10 uM after 60 mins by scintillation counting; format: cell-based
[8] = target: D(3) dopamine receptor (Homo sapiens) (UniProt P35462); experiment: Displacement of [3H]methyl-spiperone from human recombinant dopamine D3 receptor expressed in CHO cells at 10 uM after 60 mins by scintillation counting; format: cell-based
Rattus norvegicus [9] = species: Rattus norvegicus; experiment: Displacement of [3H]TCP from PCP receptor in rat cerebral cortex at 10 uM after 120 mins by scintillation counting; format: tissue-based
[10] = target: Endothelin receptor type B (Homo sapiens) (UniProt P24530); experiment: Displacement of [125I]endothelin-1 from human recombinant ETB receptor expressed in CHO cells at 10 uM after 120 mins by scintillation counting; format: cell-based
[11] = target: Neurotensin receptor type 1 (Homo sapiens) (UniProt P30989); experiment: Displacement of [125I]Tyr3-neurotensin from human recombinant NTS1 receptor expressed in CHO cells at 10 uM after 60 mins by scintillation counting; format: cell-based
[12] = Metabolic stability in human liver microsomes; format: ADME, Microsome; conditions: read-out: Stability
P2X purinoceptor 4 = P2X purinoceptor 4 (Homo sapiens, UniProt Q99571); experiment: Antagonist activity at P2X4 receptor; format: functional
[13] = target: Cholecystokinin receptor type A (Homo sapiens) (UniProt P32238); experiment: Displacement of [125I]CCK-8s from human recombinant CCK1 receptor expressed in CHO cells at 10 uM after 60 mins by scintillation counting; format: cell-based
[14] = target: D(2) dopamine receptor (Homo sapiens) (UniProt P14416); experiment: Displacement of [3H]methyl-spiperone from human recombinant D2S receptor expressed in HEK293 cells at 10 uM after 60 mins by scintillation counting; format: cell-based
[15] = target: Vasopressin V1a receptor (Homo sapiens) (UniProt P37288); experiment: Displacement of [3H]AVP from human recombinant vasopressin V1a receptor expressed in CHO cells at 10 uM after 60 mins by scintillation counting; format: cell-based
[16] = target: L-type calcium channel (verapamil binding site) (Rattus norvegicus, UniProt P22002+P27732+Q02485); experiment: Displacement of [3H]verapamil from verapamil binding site of L-type calcium channel in rat cerebral cortex at 10 uM after 120 mins by scintillation counting; format: tissue-based; conditions: probe [3H]verapamil, read-out: Activity
[17] = target: Neuromedin-K receptor (Homo sapiens) (UniProt P29371); experiment: Displacement of [3H]SR142801 from human recombinant NK3 receptor expressed in CHO cells at 10 uM after 120 mins by scintillation counting; format: cell-based
[18] = target: Mu-type opioid receptor (Homo sapiens) (UniProt P35372); experiment: Displacement of [3H]DAMGO from human recombinant mu opioid receptor expressed in HEK293 cells at 10 uM after 120 mins by scintillation counting; format: cell-based
Rattus norvegicus [19] = species: Rattus norvegicus; experiment: Displacement of [3H]a,b-MeATP from P2X receptor in rat urinary bladder at 10 uM after 120 mins by scintillation counting
[20] = target: Endothelin-1 receptor (Homo sapiens) (UniProt P25101); experiment: Displacement of [125I]endothelin-1 from human recombinant ETA receptor expressed in CHO cells at 10 uM after 120 mins by scintillation counting; format: cell-based
[21] = target: C-C chemokine receptor type 1 (Homo sapiens) (UniProt P32246); experiment: Displacement of [125I]MIP-1a from human recombinant CCR1 receptor expressed in HEK293 cells at 10 uM after 120 mins by scintillation counting; format: cell-based
[22] = target: Adrenergic receptor alpha-2 (Rattus norvegicus) (UniProt P22086+P19328+P22909); experiment: Displacement of [3H]RX 821002 from alpha2 receptor in rat cerebral cortex at 10 uM after 60 mins by scintillation counting; format: tissue-based
[23] = target: Nociceptin receptor (Homo sapiens) (UniProt P41146); experiment: Displacement of [3H]nociceptin from human recombinant NOP receptor expressed in HEK293 cells at 10 uM after 60 mins by scintillation counting; format: cell-based
[24] = target: Thromboxane A2 receptor (Homo sapiens) (UniProt P21731); experiment: Displacement of [3H]SQ29548 from human recombinant TP receptor expressed in HEK293 cells at 10 uM after 60 mins by scintillation counting; format: cell-based
[25] = target: 5-hydroxytryptamine receptor 7 (Homo sapiens) (UniProt P34969); experiment: Displacement of [3H]LSD from human recombinant 5HT7 receptor expressed in CHO cells at 10 uM after 120 mins by scintillation counting; format: cell-based
[26] = target: Beta-2 adrenergic receptor (Homo sapiens) (UniProt P07550); experiment: Displacement of [3H](-)CGP 12177 from human recombinant beta2 adrenergic receptor expressed in CHO cells at 10 uM after 120 mins by scintillation counting; format: cell-based
[27] = target: Prostacyclin receptor (Homo sapiens) (UniProt P43119); experiment: Displacement of [3H]iloprost from human recombinant IP receptor expressed in HEK293 cells at 10 uM after 60 mins by scintillation counting; format: cell-based
[28] = target: Neuropeptide Y receptor type 1 (Homo sapiens) (UniProt P25929); experiment: Displacement of [125I]peptideYY from neuropeptide Y1 receptor in human SK-N-MC cells at 10 uM after 120 mins by scintillation counting; format: cell-based
P2X purinoceptor 5 = P2X purinoceptor 5 (Homo sapiens, UniProt Q93086); experiment: Antagonist activity at P2X5 receptor; format: functional
CHO = experiment: Displacement of [3H]DADLE from human recombinant delta2 opioid receptor expressed in CHO cells at 10 uM after 120 mins by scintillation counting; format: cell-based
[29] = target: Somatostatin receptor (Mus musculus) (UniProt P30935+O08858+P30875+P30873+P49660); experiment: Displacement of [125I]Tyr11-somatostatin-14 from somatostatin in mouse AtT-20 cells at 10 uM after 60 mins by scintillation counting; format: cell-based; conditions: AtT20
[30] = target: Galanin receptor type 2 (Homo sapiens) (UniProt O43603); experiment: Displacement of [125I]galanin from human recombinant GAL2 receptor expressed in HEK293 cells at 10 uM after 120 mins by scintillation counting; format: cell-based

Chain of Neurotensin receptor type 1 (Homo sapiens) (P30989 whole entry): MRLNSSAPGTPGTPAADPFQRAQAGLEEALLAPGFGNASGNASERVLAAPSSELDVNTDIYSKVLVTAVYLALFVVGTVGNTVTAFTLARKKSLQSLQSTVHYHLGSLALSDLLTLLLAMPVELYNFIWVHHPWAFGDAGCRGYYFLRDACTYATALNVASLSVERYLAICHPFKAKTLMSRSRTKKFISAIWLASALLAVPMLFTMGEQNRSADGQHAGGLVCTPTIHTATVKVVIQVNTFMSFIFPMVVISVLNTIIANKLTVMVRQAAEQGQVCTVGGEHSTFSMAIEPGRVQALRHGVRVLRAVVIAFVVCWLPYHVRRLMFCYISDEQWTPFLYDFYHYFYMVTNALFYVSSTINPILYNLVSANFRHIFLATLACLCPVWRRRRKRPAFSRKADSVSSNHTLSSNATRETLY
Chain of Adenosine receptor A1 (Homo sapiens) (P30542 whole entry): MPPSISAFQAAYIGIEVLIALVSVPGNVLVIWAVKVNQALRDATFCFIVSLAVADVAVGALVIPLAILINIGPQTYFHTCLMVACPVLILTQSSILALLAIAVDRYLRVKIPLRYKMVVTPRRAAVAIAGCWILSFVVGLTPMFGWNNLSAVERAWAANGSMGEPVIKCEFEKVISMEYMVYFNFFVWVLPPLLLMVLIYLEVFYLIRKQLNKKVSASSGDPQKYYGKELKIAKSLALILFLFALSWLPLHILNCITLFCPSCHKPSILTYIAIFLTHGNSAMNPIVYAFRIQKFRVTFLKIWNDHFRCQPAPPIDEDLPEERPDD
Chain of Prostacyclin receptor (Homo sapiens) (P43119 whole entry): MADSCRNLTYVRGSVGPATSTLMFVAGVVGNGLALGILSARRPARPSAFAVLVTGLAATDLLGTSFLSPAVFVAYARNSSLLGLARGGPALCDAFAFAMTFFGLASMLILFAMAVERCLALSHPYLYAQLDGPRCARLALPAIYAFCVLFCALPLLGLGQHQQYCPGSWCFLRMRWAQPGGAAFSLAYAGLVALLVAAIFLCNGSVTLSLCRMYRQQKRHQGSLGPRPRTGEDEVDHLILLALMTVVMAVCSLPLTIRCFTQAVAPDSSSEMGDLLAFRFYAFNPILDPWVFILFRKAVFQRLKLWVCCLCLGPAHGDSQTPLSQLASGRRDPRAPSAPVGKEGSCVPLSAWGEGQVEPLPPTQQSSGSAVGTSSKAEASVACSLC
Chain of 5-hydroxytryptamine receptor 7 (Homo sapiens) (P34969 whole entry): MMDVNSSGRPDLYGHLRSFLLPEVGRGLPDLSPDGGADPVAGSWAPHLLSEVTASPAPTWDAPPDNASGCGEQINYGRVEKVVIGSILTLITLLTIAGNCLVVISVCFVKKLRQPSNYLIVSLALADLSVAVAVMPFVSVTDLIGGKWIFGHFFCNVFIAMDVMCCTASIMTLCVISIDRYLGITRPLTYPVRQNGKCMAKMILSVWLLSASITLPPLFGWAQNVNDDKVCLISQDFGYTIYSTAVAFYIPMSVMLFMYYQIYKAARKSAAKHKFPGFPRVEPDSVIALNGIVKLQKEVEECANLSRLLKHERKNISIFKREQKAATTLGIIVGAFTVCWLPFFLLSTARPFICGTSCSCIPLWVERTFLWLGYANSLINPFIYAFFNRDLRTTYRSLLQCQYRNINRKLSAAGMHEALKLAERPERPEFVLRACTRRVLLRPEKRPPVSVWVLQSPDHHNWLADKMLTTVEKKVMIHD
Chain of C-C chemokine receptor type 1 (Homo sapiens) (P32246 whole entry): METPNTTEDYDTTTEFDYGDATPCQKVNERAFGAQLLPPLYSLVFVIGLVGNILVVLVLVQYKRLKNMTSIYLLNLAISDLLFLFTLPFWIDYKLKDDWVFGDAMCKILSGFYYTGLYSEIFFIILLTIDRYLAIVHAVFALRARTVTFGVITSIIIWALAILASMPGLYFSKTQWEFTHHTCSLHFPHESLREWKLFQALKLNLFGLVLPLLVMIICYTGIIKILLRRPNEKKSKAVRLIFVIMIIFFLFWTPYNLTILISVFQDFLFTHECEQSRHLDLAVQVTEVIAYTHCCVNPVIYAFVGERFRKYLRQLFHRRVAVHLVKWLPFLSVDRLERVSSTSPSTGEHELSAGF
Chain of Mu-type opioid receptor (Homo sapiens) (P35372 whole entry): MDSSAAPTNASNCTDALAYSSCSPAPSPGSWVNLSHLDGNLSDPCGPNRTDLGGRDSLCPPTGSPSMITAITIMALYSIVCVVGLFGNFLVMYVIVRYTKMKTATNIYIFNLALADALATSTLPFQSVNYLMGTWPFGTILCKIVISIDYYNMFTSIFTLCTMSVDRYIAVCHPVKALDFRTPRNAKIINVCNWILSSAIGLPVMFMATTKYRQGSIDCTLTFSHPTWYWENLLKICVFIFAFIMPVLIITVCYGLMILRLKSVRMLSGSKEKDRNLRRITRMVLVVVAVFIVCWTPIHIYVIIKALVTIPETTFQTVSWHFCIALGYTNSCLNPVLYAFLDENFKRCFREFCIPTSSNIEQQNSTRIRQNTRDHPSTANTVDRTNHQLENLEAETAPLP
Chain of Kappa-type opioid receptor (Rattus norvegicus) (P34975 whole entry): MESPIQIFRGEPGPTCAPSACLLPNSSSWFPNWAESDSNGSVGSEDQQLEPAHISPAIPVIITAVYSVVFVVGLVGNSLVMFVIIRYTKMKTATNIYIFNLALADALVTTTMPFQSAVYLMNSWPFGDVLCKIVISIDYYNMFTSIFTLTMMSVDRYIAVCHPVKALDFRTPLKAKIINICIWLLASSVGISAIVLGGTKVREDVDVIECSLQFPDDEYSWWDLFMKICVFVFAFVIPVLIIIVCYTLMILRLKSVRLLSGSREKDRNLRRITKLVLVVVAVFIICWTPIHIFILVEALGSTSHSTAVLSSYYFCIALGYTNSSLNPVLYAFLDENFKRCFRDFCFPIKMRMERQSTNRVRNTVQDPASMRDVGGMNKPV
Chain of P2X purinoceptor 4 (Q99571 whole entry): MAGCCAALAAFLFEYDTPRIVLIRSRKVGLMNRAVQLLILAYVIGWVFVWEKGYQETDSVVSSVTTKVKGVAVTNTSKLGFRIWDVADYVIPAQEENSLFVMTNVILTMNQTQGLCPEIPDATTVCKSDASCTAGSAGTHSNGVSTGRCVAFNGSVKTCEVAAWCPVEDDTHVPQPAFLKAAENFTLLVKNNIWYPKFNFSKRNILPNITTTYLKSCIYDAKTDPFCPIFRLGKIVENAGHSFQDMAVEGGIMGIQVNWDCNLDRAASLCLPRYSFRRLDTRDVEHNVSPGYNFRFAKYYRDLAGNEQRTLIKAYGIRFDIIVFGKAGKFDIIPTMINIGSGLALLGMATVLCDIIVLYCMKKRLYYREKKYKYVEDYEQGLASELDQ
Chain of Vasopressin V1a receptor (Homo sapiens) (P37288 whole entry, looked up): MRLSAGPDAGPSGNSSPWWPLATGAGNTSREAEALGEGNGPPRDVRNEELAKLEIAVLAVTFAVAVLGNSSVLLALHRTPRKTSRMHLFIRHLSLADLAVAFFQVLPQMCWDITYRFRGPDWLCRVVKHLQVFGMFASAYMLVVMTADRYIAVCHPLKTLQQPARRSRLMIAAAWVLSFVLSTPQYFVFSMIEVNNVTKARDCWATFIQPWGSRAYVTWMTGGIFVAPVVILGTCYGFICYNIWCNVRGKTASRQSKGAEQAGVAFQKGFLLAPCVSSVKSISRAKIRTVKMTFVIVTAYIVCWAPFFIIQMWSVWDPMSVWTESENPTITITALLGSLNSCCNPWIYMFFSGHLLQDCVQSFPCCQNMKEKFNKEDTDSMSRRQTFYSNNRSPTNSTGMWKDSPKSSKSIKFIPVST
Chain of Neuropeptide Y receptor type 1 (Homo sapiens) (P25929 whole entry): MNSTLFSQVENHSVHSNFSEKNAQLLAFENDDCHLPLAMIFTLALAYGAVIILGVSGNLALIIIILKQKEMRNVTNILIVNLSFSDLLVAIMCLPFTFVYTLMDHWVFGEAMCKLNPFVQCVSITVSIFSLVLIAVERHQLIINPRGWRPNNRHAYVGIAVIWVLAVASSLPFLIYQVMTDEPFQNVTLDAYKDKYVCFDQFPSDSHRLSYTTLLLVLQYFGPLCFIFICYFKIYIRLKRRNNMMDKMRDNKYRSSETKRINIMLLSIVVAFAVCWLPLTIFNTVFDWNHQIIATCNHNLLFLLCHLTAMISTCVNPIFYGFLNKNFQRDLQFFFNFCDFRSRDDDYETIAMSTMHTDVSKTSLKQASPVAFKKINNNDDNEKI
Chain of Neuromedin-K receptor (Homo sapiens) (P29371 whole entry): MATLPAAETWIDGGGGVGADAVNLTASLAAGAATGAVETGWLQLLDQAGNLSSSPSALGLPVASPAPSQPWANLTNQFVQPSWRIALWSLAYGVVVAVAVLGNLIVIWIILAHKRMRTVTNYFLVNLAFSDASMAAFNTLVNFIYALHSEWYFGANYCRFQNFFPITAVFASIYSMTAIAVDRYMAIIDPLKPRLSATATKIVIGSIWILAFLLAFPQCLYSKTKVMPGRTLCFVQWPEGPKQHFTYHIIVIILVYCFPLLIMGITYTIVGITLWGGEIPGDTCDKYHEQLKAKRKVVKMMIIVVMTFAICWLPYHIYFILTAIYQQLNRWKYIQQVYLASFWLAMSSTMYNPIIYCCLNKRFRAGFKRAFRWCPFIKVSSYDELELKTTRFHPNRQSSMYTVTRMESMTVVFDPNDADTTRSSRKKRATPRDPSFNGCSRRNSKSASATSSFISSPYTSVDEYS
Chain of Endothelin receptor type B (Homo sapiens) (P24530 whole entry): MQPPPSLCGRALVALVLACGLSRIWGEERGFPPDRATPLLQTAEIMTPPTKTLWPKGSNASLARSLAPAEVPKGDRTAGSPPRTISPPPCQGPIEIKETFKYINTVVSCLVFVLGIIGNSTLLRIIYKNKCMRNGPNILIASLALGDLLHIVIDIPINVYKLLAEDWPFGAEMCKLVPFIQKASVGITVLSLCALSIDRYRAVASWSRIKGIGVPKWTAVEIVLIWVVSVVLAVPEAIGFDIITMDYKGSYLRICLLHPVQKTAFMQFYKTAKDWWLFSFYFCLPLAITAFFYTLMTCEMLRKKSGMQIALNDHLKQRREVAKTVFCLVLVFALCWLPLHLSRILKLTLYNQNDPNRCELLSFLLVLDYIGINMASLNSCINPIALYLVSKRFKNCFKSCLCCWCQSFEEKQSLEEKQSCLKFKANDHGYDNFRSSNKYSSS

CC(=O)N1CCN(C[C@@H](C)NC(=O)c2cc3c(-c4ccccc4)nn(C)c3s2)CC1
1.7 µL/min/mg: microsomal CLint [12]
> 10 µM: IC50 (P2X purinoceptor 4) | IC50 (P2X purinoceptor 5)
> 50%: Activity (Rattus norvegicus [1]) | Activity [2] | Activity [3] | Activity [4] | Activity [5] | Activity (Rattus norvegicus [6]) | Activity [7] | Activity [8] | Activity (Rattus norvegicus [9]) | Activity [10] | Activity [11] | Activity [13] | Activity [14] | Activity [15] | inhibition at 2 h, 10 µM [16] | Activity [17] | Activity [18] | Activity (Rattus norvegicus [19]) | Activity [20] | Activity [21] | Activity [22] | Activity [23] | Activity [24] | Activity [25] | Activity [26] | Activity [27] | Activity [28] | Activity (CHO) | Activity [29] | Activity [30]
